Laboratory results published in patent publication US20040010001A1, “Methods and compositions for modulating cell proliferation and cell death” (priority 1999, published 2004).
Read-outs that look alike come from different tables or passages of the source.

Legend:
Assay type in all cases: cell-based
Human pharynx FaDu = test: FGF-induced resistance, inhibition of BrdU incorporation; conditions: read-out: Drug concentration needed to produce 50% inhibition
Method: (§1) Prior to drug treatment, cells were incubated for 4 days with tumor CM or with r-aFGF ad/or r-bFGF-containing medium, supplemented with 1% FBS (final protein concentration adjusted to 2 mg/ml). The medium was renewed every other day.
(§2) The antiproliferative drug effect in histocultures was measured as inhibition of ^3H-thymidine incorporation quantified by autoradiography (Yen, W. C. et al. (1996) Pharm. Res. 13:1305-1312) and, for monolayers, as inhibition of BrdU incorporation or as reduction of total proteins by the sulforhodamine B assay (Au, J. L.-S. et al. (1998) Cancer Res. 58:2141-2148). For the latter, the two assays yielded qualitatively similar results. Cell kill induced by 96-hour drug treatment was monitored by the release of LDH into the culture medium. LDH activity was monitored by the conversion of tetrazolium to formazan (detected at 490 nm).
(§3) The experimental conditions are described briefly below. Cells were pretreated with human recombinant r-aFGF and/or r-bFGF for 96 hours and then with drugs for 96 hours. For the studies on cells derived from the human prostate, lung, pharynx, colon and breast cancer cells, the drug effect was determined by the inhibition of BrdU incorporation. For the study on the human leukemic cells, the drug effect was measured by the MTT assay, which measures the number of metabolically active cells (Alley, M. C. et al (1988) Cancer Res 48:589-601).

Human prostate PC3 = test: as above; conditions: Homo sapiens, read-out: Drug concentration needed to produce 50% inhibition
Method: as §1, §2, §3

Human colon HT-29 = test: as above; conditions: read-out: Drug concentration needed to produce 50% inhibition
Method: as §1, §2, §3

Rat prostate MAT-LyLu = test: as above; conditions: read-out: Drug concentration needed to produce 50% inhibition
Method: as §1, §2, §3

Human lung A459 = test: as above; conditions: read-out: Drug concentration needed to produce 50% inhibition
Method: as §1, §2, §3

Human breast MCF7 = test: as above; conditions: read-out: Drug concentration needed to produce 50% inhibition
Method: as §1, §2, §3

[1] = test system: Human breast BC19 (subline of MCF7 transfected with mdr1); test: as above; conditions: read-out: Drug concentration needed to produce 50% inhibition
Method: as §1, §2, §3

[2] = test system: rat lymph node metastasis cells, monolayers; test: Drug effect in monolayers of rat lymph node metastasis cells (inhibition of bromodeoxyuridine incorporation); conditions: 96 h, read-out: Concentration producing 50% inhibition
[3] = test system: Human prostate PC3 tumor cells; test: aFGF/bFGF-induced resistance and reversal by suramin, sulforhodamine B assay
Method: The experimental conditions are described briefly below. […] Cell number was measured using the sulforhodamine B assay which measures the total protein concentration. […] The FGF-induced resistance was dependent on the FGF concentrations, with a higher resistance at higher FGF concentrations.

[4] = test system: rat primary tumor cells, monolayers; test: Drug effect in monolayers of rat primary tumor cells (inhibition of bromodeoxyuridine incorporation); conditions: 96 h, read-out: Concentration producing 50% inhibition
[5] = test system: rat primary tumors, histocultures; test: Drug effect in histocultures of rat primary tumors (inhibition of 3H-thymidine incorporation); conditions: Histocultures, Primary, 96 hours, read-out: Concentration producing 50% inhibition
[6] = test system: rat lung metastasis cells, monolayers; test: Drug effect in monolayers of rat lung metastasis cells (inhibition of bromodeoxyuridine incorporation); conditions: 96 h, read-out: Concentration producing 50% inhibition
[7] = 96 h, r-aFGF + r-bFGF 0.04 ± 1 ng/ml
[8] = 96 h, r-aFGF + r-bFGF 0.08 ± 1 ng/ml
[9] = 96 h, r-aFGF + r-bFGF 0.32 ± 1 ng/ml
[10] = 96 h, r-aFGF + r-bFGF 0.64 ± 1 ng/ml
[11] = 96 h, r-aFGF + r-bFGF 1 ± 1 ng/ml
[12] = no suramin, relative to control

Which results are given for `O=c1[nH]cc(F)c(=O)[nH]1` [5-Fluorouracil]?
IC50 (Human pharynx FaDu; 96 h, r-aFGF + r-bFGF 0 ng/ml): 5.76 µM; IC50 (Human pharynx FaDu; [7]): 5.44 µM; IC50 (Human pharynx FaDu; [8]): 5.44 µM; IC50 (Human pharynx FaDu; 96 h, r-aFGF + r-bFGF 0.16 ± 1 ng/ml): 5.47 µM; IC50 (Human pharynx FaDu; [9]): 5.56 µM; IC50 (Human pharynx FaDu; [10]): 9.69 µM; IC50 (Human pharynx FaDu; [11]): 15.2 µM; IC50 (Human pharynx FaDu; r-aFGF 0 ng/ml): 5.75 µM; IC50 (Human pharynx FaDu; r-aFGF 1 ng/ml): 5.5 µM; IC50 (Human pharynx FaDu; r-aFGF 10 ng/ml): 5.45 µM; IC50 (Human pharynx FaDu; r-aFGF 50 ng/ml): 5.25 µM; IC50 (Human pharynx FaDu; r-bFGF 0 ng/ml): 4.34 µM; IC50 (Human pharynx FaDu; r-bFGF 1 ng/ml): 4.56 µM; IC50 (Human pharynx FaDu; r-bFGF 10 ng/ml): 4.79 µM; IC50 (Human pharynx FaDu; r-bFGF 50 ng/ml): 4.25 µM; IC50 (Human prostate PC3; [7]): 0.761 µM; IC50 (Human prostate PC3; [8]): 1.15 µM; IC50 (Human prostate PC3; [9]): 2.54 µM; IC50 (Human prostate PC3; [10]): 3.77 µM; IC50 (Human prostate PC3; [11]): 5.74 µM; IC50 (Human prostate PC3; 96 h, r-aFGF + r-bFGF): 1.64 µM; IC50 (Human prostate PC3; r-aFGF 0 ng/ml): 0.81 µM; IC50 (Human prostate PC3; r-aFGF 1 ng/ml): 0.815 µM; IC50 (Human prostate PC3; r-aFGF 10 ng/ml): 0.695 µM; IC50 (Human prostate PC3; r-aFGF 50 ng/ml): 0.732 µM; IC50 (Human prostate PC3; r-bFGF 0 ng/ml): 0.741 µM; IC50 (Human prostate PC3; r-bFGF 1 ng/ml): 0.846 µM; IC50 (Human prostate PC3; r-bFGF 10 ng/ml): 2.41 µM; IC50 (Human prostate PC3; r-bFGF 50 ng/ml): 4.3 µM; IC50 (Human colon HT-29; HT-29, 96 h, r-aFGF + r-bFGF 0 ng/ml): 1.64 µM; IC50 (Human colon HT-29; HT-29, 96 h, r-aFGF + r-bFGF 0.04 ± 1 ng/ml): 1.76 µM; IC50 (Human colon HT-29; HT-29, 96 h, r-aFGF + r-bFGF 0.08 ± 1 ng/ml): 1.55 µM; IC50 (Human colon HT-29; HT-29, 96 h, r-aFGF + r-bFGF 0.16 ± 1 ng/ml): 1.61 µM; IC50 (Human colon HT-29; HT-29, 96 h, r-aFGF + r-bFGF 0.32 ± 1 ng/ml): 2.77 µM; IC50 (Human colon HT-29; HT-29, 96 h, r-aFGF + r-bFGF 0.64 ± 1 ng/ml): 5.21 µM; IC50 (Human colon HT-29; HT-29, 96 h, r-aFGF + r-bFGF 1 ± 1 ng/ml): 7.07 µM; IC50 (Human colon HT-29; HT-29, r-aFGF 0 ng/ml): 1.64 µM; IC50 (Human colon HT-29; HT-29, r-aFGF 1 ng/ml): 1.62 µM; IC50 (Human colon HT-29; HT-29, r-aFGF 10 ng/ml): 1.58 µM; IC50 (Human colon HT-29; HT-29, r-aFGF 50 ng/ml): 1.63 µM; IC50 (Human colon HT-29; HT-29, r-bFGF 0 ng/ml): 2.09 µM; IC50 (Human colon HT-29; HT-29, r-bFGF 1 ng/ml): 2.36 µM; IC50 (Human colon HT-29; HT-29, r-bFGF 10 ng/ml): 2.23 µM; IC50 (Human colon HT-29; HT-29, r-bFGF 50 ng/ml): 2.25 µM; IC50 (Rat prostate MAT-LyLu; r-bFGF 0 ng/ml): 0.746 µM; IC50 (Rat prostate MAT-LyLu; r-bFGF 1 ng/ml): 1.05 µM; IC50 (Rat prostate MAT-LyLu; r-bFGF 10 ng/ml): 1.99 µM; IC50 (Rat prostate MAT-LyLu; r-bFGF 50 ng/ml): 3.25 µM; IC50 (Human lung A459; A459, 96 h, r-aFGF + r-bFGF 0 ng/ml): 0.862 µM; IC50 (Human lung A459; A459, 96 h, r-aFGF + r-bFGF 0.04 ± 1 ng/ml): 0.908 µM; IC50 (Human lung A459; A459, 96 h, r-aFGF + r-bFGF 0.08 ± 1 ng/ml): 0.995 µM; IC50 (Human lung A459; A459, 96 h, r-aFGF + r-bFGF 0.16 ± 1 ng/ml): 1.01 µM; IC50 (Human lung A459; A459, 96 h, r-aFGF + r-bFGF 0.32 ± 1 ng/ml): 1.62 µM; IC50 (Human lung A459; A459, 96 h, r-aFGF + r-bFGF 0.64 ± 1 ng/ml): 2.09 µM; IC50 (Human lung A459; A459, 96 h, r-aFGF + r-bFGF 1 ± 1 ng/ml): 3.63 µM; IC50 (Human lung A459; A459, r-bFGF 0 ng/ml): 0.87 µM; IC50 (Human lung A459; A459, r-bFGF 1 ng/ml): 1.01 µM; IC50 (Human lung A459; A459, r-bFGF 10 ng/ml): 1.38 µM; IC50 (Human lung A459; A459, r-bFGF 50 ng/ml): 1.71 µM; IC50 (Human breast MCF7; MCF7, r-bFGF 0 ng/ml): 0.991 µM; IC50 (Human breast MCF7; MCF7, r-bFGF 0.01 ng/ml): 1.03 µM; IC50 (Human breast MCF7; MCF7, r-bFGF 0.1 ng/ml): 1.37 µM; IC50 (Human breast MCF7; MCF7, r-bFGF 1 ng/ml): 1.51 µM; IC50 ([1]; r-bFGF 0 ng/ml): 0.975 µM; IC50 ([1]; r-bFGF 0.01 ng/ml): 1.07 µM; IC50 ([1]; r-bFGF 0.1 ng/ml): 1.37 µM; IC50 ([1]; r-bFGF 1 ng/ml): 1.51 µM; IC50 ([2]; Monolayers (passage 0)): 1.9 ± 0.06 µM; IC50 ([2]; Monolayers (passage 1)): 1.29 ± 0.06 µM; IC50 ([2]; Monolayers (passage 2)): 1.09 ± 0.04 µM; IC50 ([2]; Monolayers (passage 3)): 0.83 ± 0.1 µM; IC50 ([3]; Homo sapiens, read-out: IC50, Control (drug treatment only, without FGF treatment), No suramin, drug 96 hours): 2.21 µM; IC50 ([3]; Homo sapiens, read-out: IC50, aFGF 0.3 ng/ml + bFGF 1 ng/ml, No suramin, FGF pretreatment 96 hours, drug 96 hours): 5.05 µM; IC50 ([3]; Homo sapiens, read-out: IC50, aFGF 1 ng/ml + bFGF 3 ng/ml, No suramin, FGF pretreatment 96 hours, drug 96 hours): 12.6 µM; Resistance, Folds, aFGF 0.3 ng/ml + bFGF 1 ng/ml [3, 12]: 2.29 Folds; Resistance, Folds, aFGF 1 ng/ml + bFGF 3 ng/ml [3, 12]: 5.71 Folds; IC50 ([3]; read-out: IC50, Control (without FGF treatment), Suramin, 15 μM, drug 96 hours with 15 μM suramin): 2.39 µM; IC50 ([3]; read-out: IC50, aFGF 0.3 ng/ml + bFGF 1 ng/ml, With suramin, FGF pretreatment 96 hours, drug 96 hours with 15 micromolar suramin): 2.16 µM; IC50 ([3]; read-out: IC50, aFGF 1 ng/ml + bFGF 3 ng/ml, With suramin, FGF pretreatment 96 hours, drug 96 hours with 15 micromolar suramin): 2.14 µM; IC50 ([4]; Monolayers (passage 0)): 0.79 ± 0.04 µM; IC50 ([4]; Monolayers (passage 1)): 0.85 ± 0.03 µM; IC50 ([4]; Monolayers (passage 2)): 0.79 ± 0.06 µM; IC50 ([4]; Monolayers (passage 3)): 0.78 ± 0.04 µM; IC50 [5]: 33 ± 12 µM; IC50 ([6]; Monolayers (passage 0)): 2.84 ± 0.24 µM; IC50 ([6]; Monolayers (passage 1)): 1.52 ± 0.08 µM; IC50 ([6]; Monolayers (passage 2)): 1.2 ± 0.04 µM; IC50 ([6]; Monolayers (passage 3)): 0.81 ± 0.04 µM
